No end group written: not given here.
What was measured:
Assay in all cases: REVEAL Epitope Discovery System in vitro MHC-peptide binding assay
HLA-A*11:01 = HLA-A*11:01 (Homo sapiens, UniProt P04439, A114D/D185E/E176A/F33Y/L180Q/S129P/T187R); conditions: binding normalized to positive control peptide set at 100%, >50 considered good or high affinity binding
Protocol: (§1) Actual binding affinities for certain HLA class I alleles (A*02:01, A*03:01, A*11:01, and B*08:01) were assessed in vitro for exemplary overlapping 9 amino acid peptide sequences within a portion of the 26 amino acid junction region spanning the CD28 and 4-1BB junction. Specifically, assessment was of a series of overlapping 9-mer peptides derived from the sequence […] (set forth in SEQ ID NO: 7), which contains a portion of the CD28 transmembrane domain and 4-1BB costimulatory domain spanning the junction between the domains (bond joining the two amino acids noted in underline). In addition, a series of overlapping 9-mer peptides of each of a number of different variants of this portion also were assessed, each variant containing a mutation or mutations in this region as described in Example 2.
(§2) The various 9-mer overlapping peptides were synthesized and their purity tested by MALDI-TOF Mass Spectrometry. The synthetic peptides were then incubated with recombinant MHC molecules to assess binding properties using the REVEAL Epitope Discovery System, which is a high-throughput binding assay that measures the degree to which each peptide is able to stabilize a ternary MHC-peptide complex (Prolmmune, Oxford, United Kingdom). Each peptide was separately tested for this ability with respect to each of the HLA class I alleles, normalized to the degree observed for a positive control (known T cell epitope for the relevant allele). The results are reported as a score, in which the binding was normalized to the positive control peptide set at 100%. In this analysis, a score of greater than 50 generally was considered to represent good or high affinity binding.

HLA-B*08:01 = HLA-B*08:01 (Homo sapiens, UniProt P01889, A93T/A95T/D138N/E176V/E187T/K202T/Q94N/R180D/S35A/V36M/Y33D/Y91F); conditions: binding normalized to positive control peptide set at 100%, >50 considered good or high affinity binding
Protocol: as §1, §2

HLA-A*02:01 = HLA-A*02:01 (Homo sapiens, UniProt P04439, D140Y/D185E/D98H/E176V/E277Q/G131W/G231S/I119V/I121R/I166T/I218V/L300P/L318F/N151K/N90K/P208A/P217A/Q86G/Q94H/R138H/R169H/T345S); conditions: binding normalized to positive control peptide set at 100%, greater than 50 considered good or high affinity binding
Protocol: as §1, §2

HLA-A*03:01 = HLA-A*03:01 (Homo sapiens, UniProt P04439); conditions: REVEAL score, binding normalized to positive control peptide set at 100%; greater than 50 considered good or high affinity binding
Protocol: as §1, §2

| Molecule | A*11:01 In Vitro Score (HLA-A*11:01) | B*08:01 In Vitro Score (HLA-B*08:01) | A*02:01 In Vitro Score (HLA-A*02:01) | A*03:01 In Vitro (HLA-A*03:01) |
| --- | --- | --- | --- | --- |
| CC[C@H](C)[C@H](N)C(=O)N[C@@H](Cc1ccccc1)C(=O)N[C@@H](Cc1c[nH]c2ccccc12)C(=O)N[C@H](C(=O)N[C@@H](CCCCN)C(=O)N[C@@H](CCCNC(=N)N)C(=O)NCC(=O)N[C@@H](Cc1c[nH]cn1)C(=O)N[C@@H](CCCCN)C(=O)O)C(C)C | 30.90 | 3.20 | 2.20 | 9.00 |
| CC[C@H](C)[C@H](N)C(=O)N[C@H](C(=O)N[C@@H](Cc1ccccc1)C(=O)N[C@@H](Cc1c[nH]c2ccccc12)C(=O)N[C@H](C(=O)N[C@@H](C)C(=O)N[C@@H](CCCNC(=N)N)C(=O)NCC(=O)N[C@@H](CCCNC(=N)N)C(=O)O)C(C)C)[C@@H](C)CC | 70.60 | 0.30 | 9.60 | 18.60 |
| CC[C@H](C)[C@H](N)C(=O)N[C@H](C(=O)N[C@@H](Cc1ccccc1)C(=O)N[C@@H](Cc1c[nH]c2ccccc12)C(=O)N[C@H](C(=O)N[C@@H](CCCCN)C(=O)N[C@@H](CCCNC(=N)N)C(=O)NCC(=O)N[C@@H](CC(N)=O)C(=O)O)C(C)C)[C@@H](C)CC | 42.10 | 0.90 | 9.30 | 4.30 |
| CC[C@H](C)[C@H](N)C(=O)N[C@H](C(=O)N[C@@H](Cc1ccccc1)C(=O)N[C@@H](Cc1c[nH]c2ccccc12)C(=O)N[C@H](C(=O)N[C@@H](CCCCN)C(=O)N[C@@H](CCCNC(=N)N)C(=O)NCC(=O)N[C@@H](CO)C(=O)O)C(C)C)[C@@H](C)CC | 100.00 | 0.40 | 13.60 | 16.20 |
| CC(C)[C@H](NC(=O)[C@@H](N)Cc1c[nH]c2ccccc12)C(=O)N[C@@H](CCC(N)=O)C(=O)N[C@@H](CCCNC(=N)N)C(=O)NCC(=O)N[C@@H](CC(N)=O)C(=O)N[C@@H](CCCCN)C(=O)N[C@@H](CCCCN)C(=O)N[C@@H](CO)C(=O)O | 5.00 | 0.00 | 1.20 | 0.70 |
| CC(C)C[C@H](NC(=O)[C@H](CCCCN)NC(=O)[C@H](CCCCN)NC(=O)[C@H](CCCNC(=N)N)NC(=O)CNC(=O)[C@H](CCCNC(=N)N)NC(=O)[C@H](CCC(N)=O)NC(=O)[C@@H](NC(=O)[C@@H](N)Cc1c[nH]c2ccccc12)C(C)C)C(=O)O | 12.80 | 45.10 | 8.10 | 4.90 |
| AFIIFWVLR | 17.20 | 0.20 | 5.70 | 0.30 |
| AFIIFWVSR | 54.00 | 0.30 | 4.50 | 0.30 |
| FIIFWVLRG | 2.40 | 0.20 | 7.20 | 0.10 |

Next, values leading:

| A*11:01 In Vitro Score (HLA-A*11:01) | B*08:01 In Vitro Score (HLA-B*08:01) | A*02:01 In Vitro Score (HLA-A*02:01) | A*03:01 In Vitro (HLA-A*03:01) | Molecule |
| --- | --- | --- | --- | --- |
| 1.50 | 0.30 | 1.40 |  | CC[C@H](C)[C@H](NC(=O)[C@H](Cc1ccccc1)NC(=O)[C@H](C)N)C(=O)N[C@H](C(=O)N[C@@H](Cc1ccccc1)C(=O)N[C@@H](Cc1c[nH]c2ccccc12)C(=O)N[C@H](C(=O)N[C@@H](CCCNC(=N)N)C(=O)N[C@@H](CCCNC(=N)N)C(=O)O)C(C)C)[C@@H](C)CC |
| 8.90 | 0.00 | 13.50 | 5.00 | CC(C)[C@H](NC(=O)[C@H](Cc1c[nH]c2ccccc12)NC(=O)[C@@H](N)Cc1ccccc1)C(=O)N[C@@H](C)C(=O)N[C@@H](CCCNC(=N)N)C(=O)NCC(=O)N[C@@H](CCCNC(=N)N)C(=O)N[C@@H](CCCCN)C(=O)N[C@@H](CCCCN)C(=O)O |
| 25.30 | 6.30 | 9.40 | 2.70 | CC(C)C[C@H](NC(=O)CNC(=O)[C@H](CCCNC(=N)N)NC(=O)[C@H](CCCCN)NC(=O)[C@@H](NC(=O)[C@H](Cc1c[nH]c2ccccc12)NC(=O)[C@@H](N)Cc1ccccc1)C(C)C)C(=O)N[C@@H](CCCCN)C(=O)N[C@@H](CCCCN)C(=O)O |
| 7.30 | 0.10 | 8.70 | 3.60 | CC(C)[C@H](NC(=O)[C@H](Cc1c[nH]c2ccccc12)NC(=O)[C@@H](N)Cc1ccccc1)C(=O)N[C@@H](CCCCN)C(=O)N[C@@H](CCCNC(=N)N)C(=O)NCC(=O)N[C@@H](CC(N)=O)C(=O)N[C@@H](CCCCN)C(=O)N[C@@H](CCCCN)C(=O)O |
| 45.90 | 0.10 | 3.50 | 8.00 | CC[C@H](C)[C@H](N)C(=O)N[C@@H](Cc1ccccc1)C(=O)N[C@@H](Cc1c[nH]c2ccccc12)C(=O)N[C@H](C(=O)N[C@@H](CCCCN)C(=O)N[C@@H](CCCNC(=N)N)C(=O)NCC(=O)N[C@@H](CC(N)=O)C(=O)N[C@@H](CCCCN)C(=O)O)C(C)C |
| 35.20 | 0.40 | 8.40 | 2.80 | CC[C@H](C)[C@H](N)C(=O)N[C@H](C(=O)N[C@@H](Cc1ccccc1)C(=O)N[C@@H](Cc1c[nH]c2ccccc12)C(=O)N[C@H](C(=O)N[C@@H](CC(C)C)C(=O)N[C@@H](CCCNC(=N)N)C(=O)NCC(=O)N[C@@H](CCCNC(=N)N)C(=O)O)C(C)C)[C@@H](C)CC |
| 13.80 | 32.40 | 8.80 | 1.30 | CC(C)C[C@H](NC(=O)[C@H](CCCCN)NC(=O)[C@H](CCCCN)NC(=O)[C@H](CCCNC(=N)N)NC(=O)CNC(=O)[C@H](CCCNC(=N)N)NC(=O)[C@H](C)NC(=O)[C@@H](NC(=O)[C@@H](N)Cc1c[nH]c2ccccc12)C(C)C)C(=O)O |
| 5.90 |  | 4.40 | 1.20 | CC(C)C[C@H](NC(=O)[C@H](CCCCN)NC(=O)[C@H](CCCCN)NC(=O)[C@H](CO)NC(=O)CNC(=O)[C@H](CCCNC(=N)N)NC(=O)[C@H](CCC(N)=O)NC(=O)[C@@H](NC(=O)[C@@H](N)Cc1c[nH]c2ccccc12)C(C)C)C(=O)O |
| 51.80 | 0.20 | 2.20 | 0.50 | AFIIFWVAR |
| 34.90 | 0.30 | 0.30 | 0.30 | AFIIFWVHR |
| 25.90 | 1.90 | 0.50 | 5.70 | AFIIFWVKR |
| 15.00 | 0.00 | 0.40 | 0.20 | AFIIFWVQR |
| 0.90 | 0.20 | 37.30 | 0.00 | FIIFWVHRG |
| 0.40 | 0.10 | 10.10 | 1.40 | FIIFWVKRG |
